Where two headings read alike, the source gives them in different places. Bounds are passed on as bounds.

In one assay the target is human HDAC2 (Homo sapiens (Human), UniProt Q92769). Kind of assay: HDAC2 inhibition assay (modified FLUOR DE LYS, 384-well). The assay is classed as biochemical. To be noted: […] enzyme, 40 μM substrate BML-KI104, 3 h pre-incubation; read-out: HDAC2 IC50.
The next assay has as its target human HDAC8 (Homo sapiens (Human), UniProt Q9BY41). Kind of assay: HDAC8 inhibition assay (modified FLUOR DE LYS, 384-well). It is filed as biochemical. Conditions: […] enzyme, 200 μM substrate BML-KI178, 3 h pre-incubation; read-out: HDAC8 IC50.
A further assay addresses human HDAC1 (Homo sapiens (Human), UniProt Q13547).
In assay [1] the target is human HDAC3/SMRT heterodimer (Homo sapiens (Human), UniProt O15379).
human HDAC3/SMRT heterodimer, sequence (O15379 whole entry): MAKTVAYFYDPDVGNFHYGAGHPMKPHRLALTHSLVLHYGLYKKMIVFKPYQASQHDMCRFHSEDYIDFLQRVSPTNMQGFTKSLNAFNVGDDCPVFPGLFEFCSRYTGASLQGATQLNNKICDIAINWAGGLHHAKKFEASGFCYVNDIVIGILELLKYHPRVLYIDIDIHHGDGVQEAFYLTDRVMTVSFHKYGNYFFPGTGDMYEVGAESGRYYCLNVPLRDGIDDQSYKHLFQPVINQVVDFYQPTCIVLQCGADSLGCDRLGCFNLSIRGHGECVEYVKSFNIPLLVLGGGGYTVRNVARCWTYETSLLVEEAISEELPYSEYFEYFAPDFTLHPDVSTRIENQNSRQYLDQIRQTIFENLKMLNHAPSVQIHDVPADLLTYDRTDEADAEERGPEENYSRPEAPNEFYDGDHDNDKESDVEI
human HDAC3/SMRT heterodimer, sequence (Q9Y618 1-899 partner): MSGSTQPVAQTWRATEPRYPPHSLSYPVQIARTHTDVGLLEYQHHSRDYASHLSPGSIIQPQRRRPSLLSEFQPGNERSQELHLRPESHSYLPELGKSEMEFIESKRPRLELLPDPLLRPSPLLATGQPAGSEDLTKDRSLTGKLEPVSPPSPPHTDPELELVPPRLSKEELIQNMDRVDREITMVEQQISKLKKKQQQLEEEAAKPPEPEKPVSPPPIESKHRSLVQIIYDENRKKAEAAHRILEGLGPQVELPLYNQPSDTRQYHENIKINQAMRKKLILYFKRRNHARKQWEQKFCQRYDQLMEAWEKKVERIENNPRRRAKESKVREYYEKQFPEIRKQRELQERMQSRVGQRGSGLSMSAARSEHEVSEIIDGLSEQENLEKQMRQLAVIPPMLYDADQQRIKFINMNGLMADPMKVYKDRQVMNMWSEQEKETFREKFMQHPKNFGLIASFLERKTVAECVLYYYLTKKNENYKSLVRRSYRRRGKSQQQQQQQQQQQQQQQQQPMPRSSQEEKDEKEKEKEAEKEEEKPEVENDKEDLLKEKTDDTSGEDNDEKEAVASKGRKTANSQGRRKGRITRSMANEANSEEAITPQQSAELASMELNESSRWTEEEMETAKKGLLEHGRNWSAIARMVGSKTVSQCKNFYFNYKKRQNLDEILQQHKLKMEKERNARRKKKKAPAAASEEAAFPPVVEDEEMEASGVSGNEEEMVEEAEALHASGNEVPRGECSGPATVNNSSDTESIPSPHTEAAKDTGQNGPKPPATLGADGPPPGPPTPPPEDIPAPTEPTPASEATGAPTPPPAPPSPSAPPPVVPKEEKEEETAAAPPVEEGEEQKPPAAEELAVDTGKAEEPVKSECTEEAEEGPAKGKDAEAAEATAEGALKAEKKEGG
The target of the next assay is HDAC6 (Homo sapiens (Human), UniProt Q9UBN7).
HDAC6, sequence (Q9UBN7 whole entry): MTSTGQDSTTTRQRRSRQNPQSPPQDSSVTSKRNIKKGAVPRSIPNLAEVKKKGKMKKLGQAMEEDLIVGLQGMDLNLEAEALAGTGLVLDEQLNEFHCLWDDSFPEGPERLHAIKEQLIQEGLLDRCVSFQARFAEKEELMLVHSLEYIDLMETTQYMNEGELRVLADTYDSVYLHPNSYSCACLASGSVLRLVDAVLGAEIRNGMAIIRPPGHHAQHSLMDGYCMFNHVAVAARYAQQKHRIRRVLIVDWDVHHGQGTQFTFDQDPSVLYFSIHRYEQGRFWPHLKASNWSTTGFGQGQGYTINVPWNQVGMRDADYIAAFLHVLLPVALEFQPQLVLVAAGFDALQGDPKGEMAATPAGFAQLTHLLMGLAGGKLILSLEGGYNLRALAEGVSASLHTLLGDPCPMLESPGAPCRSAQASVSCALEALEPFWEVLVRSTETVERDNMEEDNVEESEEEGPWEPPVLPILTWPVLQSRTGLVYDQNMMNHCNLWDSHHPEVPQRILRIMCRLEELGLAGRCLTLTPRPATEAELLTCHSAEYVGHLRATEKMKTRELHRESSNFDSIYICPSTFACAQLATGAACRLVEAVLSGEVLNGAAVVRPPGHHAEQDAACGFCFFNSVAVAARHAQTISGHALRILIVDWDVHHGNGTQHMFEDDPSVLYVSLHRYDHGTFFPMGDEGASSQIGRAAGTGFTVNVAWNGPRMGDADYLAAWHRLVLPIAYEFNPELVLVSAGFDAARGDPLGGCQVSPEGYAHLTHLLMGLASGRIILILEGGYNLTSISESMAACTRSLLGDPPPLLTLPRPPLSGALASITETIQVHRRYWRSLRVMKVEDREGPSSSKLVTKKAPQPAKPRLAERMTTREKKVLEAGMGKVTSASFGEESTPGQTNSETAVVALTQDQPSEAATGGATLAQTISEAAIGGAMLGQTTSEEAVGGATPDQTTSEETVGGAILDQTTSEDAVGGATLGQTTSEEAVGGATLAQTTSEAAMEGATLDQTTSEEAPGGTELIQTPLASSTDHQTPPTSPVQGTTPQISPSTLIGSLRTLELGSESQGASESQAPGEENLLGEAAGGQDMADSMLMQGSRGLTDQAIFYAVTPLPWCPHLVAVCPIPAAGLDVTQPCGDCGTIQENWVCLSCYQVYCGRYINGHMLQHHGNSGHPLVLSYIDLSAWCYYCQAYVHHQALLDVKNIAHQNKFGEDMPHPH
The test system of the next assay is KARN cells (Jurkat 2C4). Kind of assay: cells. Conditions: Homo sapiens.
[2] abbreviates: read-out: Karn EC50 nM 0.1% NHS, 0.1% normal human serum, luciferase induction, 2 μM SAHA = 100%.
The mark [3] stands for this setting: read-out: Karn EC50 nM 5% NHS, 5% normal human serum, luciferase induction, 2 μM SAHA = 100%.

human HDAC1, sequence (Q13547 whole entry): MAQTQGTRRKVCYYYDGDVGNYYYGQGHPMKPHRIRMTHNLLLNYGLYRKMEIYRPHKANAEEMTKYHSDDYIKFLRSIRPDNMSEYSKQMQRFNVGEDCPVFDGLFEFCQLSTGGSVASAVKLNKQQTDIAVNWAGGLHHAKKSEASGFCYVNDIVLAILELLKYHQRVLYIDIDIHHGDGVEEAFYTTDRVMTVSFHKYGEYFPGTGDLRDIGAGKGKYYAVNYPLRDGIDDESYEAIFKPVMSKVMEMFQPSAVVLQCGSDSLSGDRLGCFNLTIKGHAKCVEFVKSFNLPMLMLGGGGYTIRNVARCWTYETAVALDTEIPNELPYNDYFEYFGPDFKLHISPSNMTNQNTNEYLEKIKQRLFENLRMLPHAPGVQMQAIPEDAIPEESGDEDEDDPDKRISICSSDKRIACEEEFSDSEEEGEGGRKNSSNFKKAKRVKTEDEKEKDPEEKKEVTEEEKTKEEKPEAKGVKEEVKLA
human HDAC2, sequence (Q92769 whole entry): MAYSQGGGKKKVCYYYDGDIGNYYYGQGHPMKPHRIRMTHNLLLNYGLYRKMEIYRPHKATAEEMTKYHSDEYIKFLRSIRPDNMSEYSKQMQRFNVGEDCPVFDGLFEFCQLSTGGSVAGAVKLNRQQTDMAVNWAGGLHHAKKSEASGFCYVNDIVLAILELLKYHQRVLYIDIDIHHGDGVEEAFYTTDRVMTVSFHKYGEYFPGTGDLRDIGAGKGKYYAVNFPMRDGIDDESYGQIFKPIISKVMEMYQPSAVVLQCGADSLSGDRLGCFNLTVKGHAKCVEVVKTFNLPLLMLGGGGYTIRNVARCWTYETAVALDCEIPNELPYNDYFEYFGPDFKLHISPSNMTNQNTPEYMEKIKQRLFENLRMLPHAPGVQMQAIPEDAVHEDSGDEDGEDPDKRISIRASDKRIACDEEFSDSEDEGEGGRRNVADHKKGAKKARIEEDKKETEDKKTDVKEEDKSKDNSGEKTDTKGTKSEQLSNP
human HDAC8, sequence (Q9BY41 whole entry): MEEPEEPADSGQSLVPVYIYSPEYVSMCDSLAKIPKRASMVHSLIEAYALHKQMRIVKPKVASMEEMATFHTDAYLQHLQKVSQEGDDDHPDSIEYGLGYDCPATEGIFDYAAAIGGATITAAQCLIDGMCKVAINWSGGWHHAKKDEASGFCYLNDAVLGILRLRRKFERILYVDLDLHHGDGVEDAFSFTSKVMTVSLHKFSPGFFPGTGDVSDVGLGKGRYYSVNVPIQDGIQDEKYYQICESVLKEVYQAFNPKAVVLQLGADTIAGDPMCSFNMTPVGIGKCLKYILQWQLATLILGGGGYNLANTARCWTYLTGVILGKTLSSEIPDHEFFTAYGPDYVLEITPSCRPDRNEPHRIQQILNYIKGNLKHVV
Procedure for KARN cells (Jurkat 2C4): KARN Assay Cell Maintenance
KARN cells (Jurkat 2C4) were licensed from the laboratory of Dr. John Karn, Case Western Reserve University, School of Medicine. […] An atmosphere of 5% CO2 and 90% humidity was used for all culture work.
These flasks were returned to the incubator.
The cells were gently resuspended in assay media (30 ml) and pelleted again. […] The cells were counted using the ViCell (Beckman Coulter) and diluted as necessary. […] The plates were covered and returned to the incubator prior to compound addition.
The reference compounds, DMSO and SAHA were then added to the compound plate. […] The final high concentration for SAHA and the test compounds in the assays was 40 μM. The final DMSO concentration in all wells was 0.4%. The minimal induction reference compound used was DMSO and the maximal induction reference compound used was SAHA (2 μM final concentration in the assay).
Day 3: The luciferase detection reagent was prepared by transferring the contents of one bottle of Steady-Glo buffer to one bottle of Steady-Glo aubstrate (Steady-Glo Luciferase Assay System, Promega, catalog number E2520), followed by gently mixing until the substrate was thoroughly dissolved and the solution was equilibrated to room temperature. […] The Steady-Glo Reagent was added to the plates (30 μl/well), which were then covered with a black lid and incubated for 10 minutes at room temperature. The plates were then read for luminescence on an Envision (Perkin Elmer) using the ultrasensitive mode (US LUM), 0.1 counts per second and 384-well aperture. Luminescence counts in the DMSO reference wells were considered as 0% induction, while those in the 2 μM SAHA reference wells were considered as 100% induction. Dose response curves were plotted as test compound concentration (X-axis) vs. percent activation (Y-axis) using a 4-parameter fit based on the Levenberg-Marquardt algorithm.

In the case of `COc1cc2nc(C)ccc2cc1-c1cnc([C@H](CCCCCC(=O)c2ncco2)NC(=O)C2CCCCO2)[nH]1` (stereo partly drawn) [Example 168, N-[(1S)-1-[5-(7-methoxy-2-methylquinolin-6-yl)-1H-imidazol-2-yl]-7-(1,3-oxazol-2-yl)-7-oxoheptyl]tetrahydro-2H-pyran-2-carboxamide], the IC50 on human HDAC2 is 12 nM; at human HDAC8, 120 nM; against human HDAC1, 3 nM; in assay [1], 1.2 nM; on HDAC6, > 900 nM. The EC50 is 100 nM in the assay with KARN cells (Jurkat 2C4) (setting [2]) and 200 nM with KARN cells (Jurkat 2C4) (setting [3]).
In the case of `COc1cc2nc(C)ccc2cc1-c1cnc([C@H](CCCCCC(=O)c2ncco2)NC(=O)C2CCCO2)[nH]1` (stereo partly drawn) [Example 169, N-[(1S)-1-[5-(7-methoxy-2-methylquinolin-6-yl)-1H-imidazol-2-yl]-7-(1,3-oxazol-2-yl)-7-oxoheptyl]tetrahydrofuran-2-carboxamide], the IC50 on human HDAC2 was 15 nM; on human HDAC8 it was 180 nM; against human HDAC1, 3.4 nM; in assay [1], 1.2 nM; against HDAC6, > 900 nM. Further, the results for the EC50 in the assay with KARN cells (Jurkat 2C4) (setting [2]) and with KARN cells (Jurkat 2C4) (setting [3]) were 99 nM and 270 nM, respectively.
As for `COc1cc2nc(C)ccc2cc1-c1cnc([C@H](CCCCCC(=O)c2ncco2)NC(=O)C2(C)CCCCO2)[nH]1` (stereo partly drawn) [Example 170, N-[(1S)-1-[5-(7-methoxy-2-methylquinolin-6-yl)-1H-imidazol-2-yl]-7-(1,3-oxazol-2-yl)-7-oxoheptyl]-2-methyltetrahydro-2H-pyran-2-carboxamide], the IC50 on human HDAC2 is 17 nM; at human HDAC8, 220 nM; on human HDAC1, 4.1 nM; in assay [1] it was 1.6 nM; against HDAC6, > 900 nM. The EC50 in the assay with KARN cells (Jurkat 2C4) (setting [2]) stood at 160 nM; in the assay with KARN cells (Jurkat 2C4) (setting [3]) it was 260 nM.
Regarding `COc1cc2nc(C)ccc2cc1-c1cnc([C@H](CCCCCC(=O)c2ncco2)NC(=O)C2COc3ccccc3O2)[nH]1` (stereo partly drawn) [Example 171, N-[(1S)-1-[5-(7-methoxy-2-methylquinolin-6-yl)-1H-imidazol-2-yl]-7-(1,3-oxazol-2-yl)-7-oxoheptyl]-2,3-dihydro-1,4-benzodioxine-2-carboxamide], the IC50 was 56 nM at human HDAC2; 340 nM on human HDAC8; 11 nM against human HDAC1; 4 nM in assay [1]; > 900 nM at HDAC6. Moreover, the EC50 amounted to 180 nM with KARN cells (Jurkat 2C4) (setting [2]) and 470 nM with KARN cells (Jurkat 2C4) (setting [3]).
In the case of `COc1cc2nc(C)ccc2cc1-c1cnc([C@H](CCCCCC(=O)c2ncco2)NC(=O)C2COC(c3ccccc3)CO2)[nH]1` (stereo partly drawn) [Example 172, N-[(1S)-1-[5-(7-methoxy-2-methylquinolin-6-yl)-1H-imidazol-2-yl]-7-(1,3-oxazol-2-yl)-7-oxoheptyl]-5-phenyl-1,4-dioxane-2-carboxamide], the IC50 on human HDAC2 is 100 nM; at human HDAC8, 490 nM; against human HDAC1, 20 nM; in assay [1], 6.4 nM; at HDAC6, > 900 nM. Further, the EC50 amounted to 340 nM in the assay on KARN cells (Jurkat 2C4) (setting [2]) and 990 nM in the assay with KARN cells (Jurkat 2C4) (setting [3]).
Turning to `COc1cc2nc(C)ccc2cc1-c1cnc([C@H](CCCCCC(=O)c2ncco2)NC(=O)C2COCCO2)[nH]1` (stereo partly drawn) [Example 173, N-[(1S)-1-[5-(7-methoxy-2-methylquinolin-6-yl)-1H-imidazol-2-yl]-7-(1,3-oxazol-2-yl)-7-oxoheptyl]-1,4-dioxane-2-carboxamide], the IC50 at human HDAC2 was 3.2 nM; on human HDAC8, 83 nM; against human HDAC1 it was 1.1 nM; in assay [1], 0.43 nM; at HDAC6, > 900 nM. In addition, the EC50 in the assay with KARN cells (Jurkat 2C4) (setting [2]) came to 42 nM; in the assay on KARN cells (Jurkat 2C4) (setting [3]), 74 nM.
